Experimental data from patent publication US20230181677A1, “POLYPEPTIDE FOR PROMOTING BONE REGENERATION OR BONE FORMATION AND ITS USE” (SEWON BIOTECHNOLOGY INC., priority 2016, published 2023).
Where no end group is shown, it is not given here.

Experiments:
[1] = tested on: undifferentiated stem cells; assay: ALP activity of undifferentiated stem cells cultured on titanium disk (osteocyte differentiation); format: cell-based; conditions: peptide 10 μM, 6 hours then osteoblast differentiation medium 48 hours, versus control (C)
From the text: As described above, on the surface of hard structures such as bones or on the surface where cells are difficult to attach to, the peptide of the present invention can promotes the cell adhesion which is a key mechanism for the regeneration. […] Therefore, in this Example, various adhesive peptides developed and disclosed in the present disclosure were used to test their activity for promoting the osteocyte differentiation. For this, each peptide was mixed with undifferentiated stem cells, which was then cultured on a titanium osteoconductive surface, and analyzed the cells for the differentiation into osteocytes. Two×10^4 cells/ml treated with trypsin and mixed with peptide (10 μM) were cultured on a dental titanium disk having a diameter of 10 mm in size for 6 hours, after which the medium was replaced with osteoblast differentiation medium and the cells were cultured for 48 hours. Then the discs were recovered and the cells were lysed and ALP (Alkaline phosphatase) activity was measured.

femur muscle of mouse = assay: ectopic ossification analysis, ACS graft in femur muscle, micro-CT; format: in vivo; conditions: BMP-2 2 μg left femur, peptide 600 μg right femur; n=10; eight weeks after operation
Experimental: Eight weeks after the operation, animals were euthanized and micro-CT analysis was performed to observe calcification (ectopic ossification) in the muscle. All 10 animals were used.

## (R) 15-QLVVKFRALPC (RRRRRRRRRRRRRRRQLVVKFRALPC) [SEQ ID NO: 41, peptide positively charged at the N-terminus containing 15 arginine residues]
[1]
  ALP (Alkaline phosphatase) activity: highest ALP activity

## RQLVVKFRALPC [present peptide]
Femur muscle of mouse
  ectopic ossification (calcification in the muscle), micro-CT: no ectopic ossification in all the mice treated
